Laboratory results published in patent US12358886B2, “Heterocyclic compounds for use in the treatment of cancer” (Artios Pharma Limited, priority 2019, dated 2025).

target: Polθ protein (amino acids 2-2590) (Homo sapiens, UniProt O75417); experiment: Polθ full length enzyme potency assay (PicoGreen); details: Polθ IC50 (nM), full length N-His, C-term FLAG tagged Polθ, PicoGreen fluorescence, 12 point concentration response
Sequence (O75417 2-2590): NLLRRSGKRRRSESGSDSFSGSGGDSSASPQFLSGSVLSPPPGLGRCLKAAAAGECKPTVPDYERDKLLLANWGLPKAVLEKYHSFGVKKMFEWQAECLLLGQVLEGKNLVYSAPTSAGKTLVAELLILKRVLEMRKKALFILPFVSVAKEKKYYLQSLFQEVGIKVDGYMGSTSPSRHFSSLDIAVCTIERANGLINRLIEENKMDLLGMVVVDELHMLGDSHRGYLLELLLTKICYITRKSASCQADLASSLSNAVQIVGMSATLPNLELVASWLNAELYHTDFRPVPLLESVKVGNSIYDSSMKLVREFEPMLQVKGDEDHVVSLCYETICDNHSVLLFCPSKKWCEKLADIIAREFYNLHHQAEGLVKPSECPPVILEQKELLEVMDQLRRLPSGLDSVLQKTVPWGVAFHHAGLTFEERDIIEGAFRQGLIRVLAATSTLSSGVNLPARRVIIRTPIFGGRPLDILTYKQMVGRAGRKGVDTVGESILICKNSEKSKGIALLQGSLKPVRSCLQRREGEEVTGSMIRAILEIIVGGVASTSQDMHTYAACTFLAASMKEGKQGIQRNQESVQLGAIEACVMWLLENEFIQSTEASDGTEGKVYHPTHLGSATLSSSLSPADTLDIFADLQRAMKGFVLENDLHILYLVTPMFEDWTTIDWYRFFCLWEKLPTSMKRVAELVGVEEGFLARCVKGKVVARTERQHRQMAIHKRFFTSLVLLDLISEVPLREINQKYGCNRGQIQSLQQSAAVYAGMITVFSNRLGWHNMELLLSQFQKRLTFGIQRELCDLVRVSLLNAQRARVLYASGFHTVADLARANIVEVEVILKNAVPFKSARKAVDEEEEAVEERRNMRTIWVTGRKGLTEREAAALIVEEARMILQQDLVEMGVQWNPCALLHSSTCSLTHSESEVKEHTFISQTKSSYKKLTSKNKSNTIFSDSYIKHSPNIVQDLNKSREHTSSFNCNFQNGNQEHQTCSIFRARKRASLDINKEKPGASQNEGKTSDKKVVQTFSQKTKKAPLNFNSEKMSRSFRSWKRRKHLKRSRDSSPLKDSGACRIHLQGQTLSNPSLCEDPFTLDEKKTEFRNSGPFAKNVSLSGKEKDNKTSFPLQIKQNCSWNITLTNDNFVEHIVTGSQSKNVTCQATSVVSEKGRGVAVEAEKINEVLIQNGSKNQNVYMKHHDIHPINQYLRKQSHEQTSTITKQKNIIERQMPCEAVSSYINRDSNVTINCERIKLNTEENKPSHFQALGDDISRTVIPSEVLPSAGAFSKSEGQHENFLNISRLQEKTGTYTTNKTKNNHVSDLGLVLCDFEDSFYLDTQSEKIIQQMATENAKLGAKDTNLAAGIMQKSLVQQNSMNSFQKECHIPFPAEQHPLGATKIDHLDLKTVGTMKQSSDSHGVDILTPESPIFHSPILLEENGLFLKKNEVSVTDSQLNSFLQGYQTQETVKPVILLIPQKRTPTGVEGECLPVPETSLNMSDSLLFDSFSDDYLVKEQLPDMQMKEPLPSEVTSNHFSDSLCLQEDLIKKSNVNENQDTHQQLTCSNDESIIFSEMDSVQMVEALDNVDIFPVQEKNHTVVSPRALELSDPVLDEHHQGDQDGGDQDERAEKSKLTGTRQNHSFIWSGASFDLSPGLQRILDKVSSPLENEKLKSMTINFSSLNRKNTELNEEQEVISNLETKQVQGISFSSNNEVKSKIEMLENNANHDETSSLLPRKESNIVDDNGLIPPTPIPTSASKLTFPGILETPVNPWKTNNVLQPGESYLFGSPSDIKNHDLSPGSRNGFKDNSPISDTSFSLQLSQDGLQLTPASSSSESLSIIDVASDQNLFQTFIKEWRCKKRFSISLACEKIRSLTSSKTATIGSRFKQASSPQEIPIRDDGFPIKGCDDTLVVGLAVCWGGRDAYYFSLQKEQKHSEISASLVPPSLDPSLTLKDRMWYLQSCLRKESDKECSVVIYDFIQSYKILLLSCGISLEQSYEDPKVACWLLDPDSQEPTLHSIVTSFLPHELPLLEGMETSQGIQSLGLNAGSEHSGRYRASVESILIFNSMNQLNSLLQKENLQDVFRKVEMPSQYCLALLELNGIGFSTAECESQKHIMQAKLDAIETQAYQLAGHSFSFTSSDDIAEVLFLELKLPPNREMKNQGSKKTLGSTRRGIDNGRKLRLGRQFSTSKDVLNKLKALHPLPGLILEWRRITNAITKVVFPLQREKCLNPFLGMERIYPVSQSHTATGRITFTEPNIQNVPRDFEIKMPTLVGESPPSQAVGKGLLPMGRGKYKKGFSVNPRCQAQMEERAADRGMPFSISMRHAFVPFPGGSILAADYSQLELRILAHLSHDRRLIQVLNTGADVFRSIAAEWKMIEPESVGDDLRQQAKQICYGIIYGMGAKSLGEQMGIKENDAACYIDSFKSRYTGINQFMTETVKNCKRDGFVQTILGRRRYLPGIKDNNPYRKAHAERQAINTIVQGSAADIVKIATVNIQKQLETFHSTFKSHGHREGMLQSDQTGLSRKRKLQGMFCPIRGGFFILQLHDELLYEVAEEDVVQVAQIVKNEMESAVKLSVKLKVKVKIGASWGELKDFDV

Structure (SMILES)	IC50
Cc1cc(C(F)(F)F)cc(N2C(=O)N(CCN3CC[C@H](O)C3)C[C@H]2C(=O)N(C)c2ccc(F)c(Cl)c2)n1 [Example 196, (S)-N-(3-Chloro-4-fluorophenyl)-1-(2-((S)-3-hydroxypyrrolidin-1-yl)ethyl)-N-methyl-3-(6-methyl-4-(trifluoromethyl)pyridin-2-yl)-2-oxoimidazolidine-4-carboxamide]	24 nM
Cc1cc(C(F)(F)F)cc(N2C(=O)N(CCN3CC[C@@H](O)C3)C[C@H]2C(=O)N(C)c2ccc(F)c(Cl)c2)n1 [Example 197, (S)-N-(3-Chloro-4-fluorophenyl)-1-(2-((R)-3-hydroxypyrrolidin-1-yl)ethyl)-N-methyl-3-(6-methyl-4-(trifluoromethyl)pyridin-2-yl)-2-oxoimidazolidine-4-carboxamide]	19 nM
Cc1cc(C(F)(F)F)cc(N2C(=O)N(CCN3CCC3)C[C@H]2C(=O)N(C)c2ccc(F)c(Cl)c2F)n1 [Example 201, (S)-1-(2-(Azetidin-1-yl)ethyl)-N-(3-chloro-2,4-difluorophenyl)-N-methyl-3-(6-methyl-4-(trifluoromethyl)-pyridin-2-yl)-2-oxoimidazolidine-4-carboxamide]	26 nM
CC(=O)N1CCN(CCN2C[C@@H](C(=O)N(C)c3ccc(F)c(Cl)c3F)N(c3cc(C(F)(F)F)cc(C)n3)C2=O)CC1 [Example 204, (S)-1-(2-(4-Acetylpiperazin-1-yl)ethyl)-N-(3-chloro-2,4-difluoro-phenyl)-N-methyl-3-(6-methyl-4-(trifluoromethyl)pyridin-2-yl)-2-oxoimidazolidine-4-carboxamide]	3 nM
Cc1cc(C(F)(F)F)cc(N2C(=O)N(CCN3CC[C@H](F)C3)C[C@H]2C(=O)N(C)c2ccc(F)c(Cl)c2F)n1 [Example 205, (S)-N-(3-Chloro-2,4-difluorophenyl)-1-(2-((S)-3-fluoropyrrolidin-1-yl)ethyl)-N-methyl-3-(6-methyl-4-(trifluoromethyl)pyridin-2-yl)-2-oxoimidazolidine-4-carboxamide]	6 nM
Cc1cc(C(F)(F)F)cc(N2C(=O)N(CCN3CCC(F)(F)C3)C[C@H]2C(=O)N(C)c2ccc(F)c(Cl)c2F)n1 [Example 206, (S)-N-(3-Chloro-2,4-difluorophenyl)-1-(2-(3,3-difluoropyrrolidin-1-yl)ethyl)-N-methyl-3-(6-methyl-4-(trifluoromethyl)pyridin-2-yl)-2-oxoimidazolidine-4-carboxamide]	15 nM
CC(=O)N(C)C1CCN(CCN2C[C@@H](C(=O)N(C)c3ccc(F)c(Cl)c3F)N(c3cc(C(F)(F)F)cc(C)n3)C2=O)C1 (stereo partly drawn) [Example 207, (4S)-N-(3-Chloro-2,4-difluoro-phenyl)-N-methyl-3-(6-methyl-4-(trifluoromethyl)pyridin-2-yl)-1-(2-(3-(N-methylacetamido)-pyrrolidin-1-yl)ethyl)-2-oxoimidazolidine-4-carboxamide]	7 nM
Cc1cc(C(F)(F)F)cc(N2C(=O)N(CCN3CCS(=O)(=O)CC3)C[C@H]2C(=O)N(C)c2ccc(F)c(Cl)c2F)n1 [Example 208, (S)-N-(3-Chloro-2,4-difluorophenyl)-1-(2-(1,1-dioxidothiomorpholino)-ethyl)-N-methyl-3-(6-methyl-4-(trifluoromethyl)pyridin-2-yl)-2-oxoimidazolidine-4-carboxamide]	9 nM
Cc1cc(C(F)(F)F)cc(N2C(=O)N(CCN3CCN(C)C(=O)C3)C[C@H]2C(=O)N(C)c2ccc(F)c(Cl)c2F)n1 [Example 210, (S)-N-(3-Chloro-2,4-difluorophenyl)-N-methyl-1-(2-(4-methyl-3-oxopiperazin-1-yl)ethyl)-3-(6-methyl-4-(trifluoromethyl)pyridin-2-yl)-2-oxoimidazolidine-4-carboxamide]	7 nM
Cc1cc(C(F)(F)F)cc(N2C(=O)N(CCN3CCC(C#N)CC3)C[C@H]2C(=O)N(C)c2ccc(F)c(Cl)c2F)n1 [Example 211, (S)-N-(3-Chloro-2,4-difluorophenyl)-1-(2-(4-cyanopiperidin-1-yl)ethyl)-N-methyl-3-(6-methyl-4-(trifluoromethyl)pyridin-2-yl)-2-oxoimidazolidine-4-carboxamide]	5 nM
Cc1cc(C(F)(F)F)cc(N2C(=O)N(CCS(C)(=N)=O)C[C@H]2C(=O)N(C)c2ccc(F)c(Cl)c2F)n1 (stereo partly drawn) [Example 212, (4S)—N-(3-Chloro-2,4-difluorophenyl)-N-methyl-3-(6-methyl-4-(trifluoromethyl)pyridin-2-yl)-1-(2-(S-methylsulfonimidoyl)ethyl)-2-oxoimidazolidine-4-carboxamide]	6 nM
Cc1cc(C(F)(F)F)cc(N2C(=O)N(CC3CN(C)CCO3)C[C@H]2C(=O)N(C)c2ccc(F)c(Cl)c2F)n1 (stereo partly drawn) [Example 219, (4S)—N-(3-Chloro-2,4-difluorophenyl)-N-methyl-3-(6-methyl-4-(trifluoromethyl)pyridin-2-yl)-1-((4-methylmorpholin-2-yl)methyl)-2-oxoimidazolidine-4-carboxamide]	11 nM
Cc1cc(C(F)(F)F)cc(N2C(=O)N(CCCN3CCNCC3)C[C@H]2C(=O)N(C)c2ccc(F)c(Cl)c2F)n1 [Example 220, (S)—N-(3-Chloro-2,4-difluorophenyl)-N-methyl-3-(6-methyl-4-(trifluoromethyl)pyridin-2-yl)-2-oxo-1-(3-(piperazin-1-yl)propyl)imidazolidine-4-carboxamide]	11 nM
CC(=O)N1CCN(CCCN2C[C@@H](C(=O)N(C)c3ccc(F)c(Cl)c3F)N(c3cc(C(F)(F)F)cc(C)n3)C2=O)CC1 [Example 221, (S)-1-(3-(4-Acetylpiperazin-1-yl)propyl)-N-(3-chloro-2,4-difluorophenyl)-N-methyl-3-(6-methyl-4-(trifluoromethyl)pyridin-2-yl)-2-oxoimidazolidine-4-carboxamide]	11 nM
Cc1cc(C(F)(F)F)cc(N2C(=O)N(CC3(O)CCN(C)C3)C[C@H]2C(=O)N(C)c2ccc(F)c(Cl)c2F)n1 (stereo partly drawn) [Example 223, (4S)—N-(3-Chloro-2,4-difluorophenyl)-1-((3-hydroxy-1-methylpyrrolidin-3-yl)methyl)-N-methyl-3-(6-methyl-4-(trifluoromethyl)pyridin-2-yl)-2-oxoimidazolidine-4-carboxamide]	8 nM

Continued by falling IC50, values first:

IC50	Structure (SMILES)
26 nM	Cc1cc(C(F)(F)F)cc(N2C(=O)N(CCS(C)(=N)=O)C[C@H]2C(=O)N(C)c2ccc(F)c(Cl)c2)n1 (stereo partly drawn) [Example 213, (4S)—N-(3-Chloro-4-fluorophenyl)-N-methyl-3-(6-methyl-4-(trifluoromethyl)pyridin-2-yl)-1-(2-(S-methylsulfonimidoyl)ethyl)-2-oxoimidazolidine-4-carboxamide]
16 nM	Cc1cc(C(F)(F)F)cc(N2C(=O)N(CC3CNCCO3)C[C@H]2C(=O)N(C)c2ccc(F)c(Cl)c2F)n1 (stereo partly drawn) [Example 218, (4S)—N-(3-Chloro-2,4-difluorophenyl)-N-methyl-3-(6-methyl-4-(trifluoromethyl)pyridin-2-yl)-1-(morpholin-2-ylmethyl)-2-oxoimidazolidine-4-carboxamide]
12 nM	Cc1cc(C(F)(F)F)cc(N2C(=O)N(CCN3CCC3)C[C@H]2C(=O)N(C)c2ccc(F)c(Cl)c2)n1 [Example 200, (S)-1-(2-(Azetidin-1-yl)ethyl)-N-(3-chloro-4-fluorophenyl)-N-methyl-3-(6-methyl-4-(trifluoromethyl)pyridin-2-yl)-2-oxoimidazolidine-4-carboxamide]
11 nM	Cc1cc(C(F)(F)F)cc(N2C(=O)N(CC(O)CN(C)C)C[C@H]2C(=O)N(C)c2ccc(F)c(Cl)c2F)n1 (stereo partly drawn) [Example 214, (4S)—N-(3-Chloro-2,4-difluorophenyl)-1-(3-(dimethylamino)-2-hydroxypropyl)-N-methyl-3-(6-methyl-4-(trifluoromethyl)pyridin-2-yl)-2-oxoimidazolidine-4-carboxamide]
10 nM	Cc1cc(C(F)(F)F)cc(N2C(=O)N(CCN3CCC3CO)C[C@H]2C(=O)N(C)c2ccc(F)c(Cl)c2F)n1 (stereo partly drawn) [Example 203, (4S)-N-(3-Chloro-2,4-difluoro-phenyl)-1-(2-(2-(hydroxymethyl)-azetidin-1-yl)-ethyl)-N-methyl-3-(6-methyl-4-(trifluoromethyl)pyridin-2-yl)-2-oxoimidazolidine-4-carboxamide]
9 nM	Cc1cc(C(F)(F)F)cc(N2C(=O)N(CC3(O)CCNC3)C[C@H]2C(=O)N(C)c2ccc(F)c(Cl)c2F)n1 (stereo partly drawn) [Example 222, (4S)—N-(3-Chloro-2,4-difluorophenyl)-1-((3-hydroxypyrrolidin-3-yl)methyl)-N-methyl-3-(6-methyl-4-(trifluoromethyl)pyridin-2-yl)-2-oxoimidazolidine-4-carboxamide]
8 nM	Cc1cc(C(F)(F)F)cc(N2C(=O)N(CCN3CCN(CCO)CC3)C[C@H]2C(=O)N(C)c2ccc(F)c(Cl)c2F)n1 [Example 209, (S)-N-(3-Chloro-2,4-difluorophenyl)-1-(2-(4-(2-hydroxyethyl)piperazin-1-yl)ethyl)-N-methyl-3-(6-methyl-4-(trifluoromethyl)pyridin-2-yl)-2-oxoimidazolidine-4-carboxamide]
7 nM	Cc1cc(C(F)(F)F)cc(N2C(=O)N(CCN3CC(O)C3)C[C@H]2C(=O)N(C)c2ccc(F)c(Cl)c2F)n1 [Example 202, (S)-N-(3-Chloro-2,4-difluorophenyl)-1-(2-(3-hydroxyazetidin-1-yl)ethyl)-N-methyl-3-(6-methyl-4-(trifluoromethyl)pyridin-2-yl)-2-oxoimidazolidine-4-carboxamide]
7 nM	Cc1cc(C(F)(F)F)cc(N2C(=O)N(CC(O)CN3CCOCC3)C[C@H]2C(=O)N(C)c2ccc(F)c(Cl)c2F)n1 (stereo partly drawn) [Example 217, (4S)—N-(3-Chloro-2,4-difluorophenyl)-1-(2-hydroxy-3-morpholinopropyl)-N-methyl-3-(6-methyl-4-(trifluoromethyl)pyridin-2-yl)-2-oxoimidazolidine-4-carboxamide]
4 nM	Cc1cc(C(F)(F)F)cc(N2C(=O)N(CC(O)CN3CCC(F)(F)C3)C[C@H]2C(=O)N(C)c2ccc(F)c(Cl)c2F)n1 (stereo partly drawn) [Example 216, (4S)—N-(3-Chloro-2,4-difluorophenyl)-1-(3-(3,3-difluoropyrrolidin-1-yl)-2-hydroxy-propyl)-N-methyl-3-(6-methyl-4-(trifluoromethyl)pyridin-2-yl)-2-oxoimidazolidine-4-carboxamide]
